From patent US5952323A, “Carbapenem antibiotic” (Merck & Co., Inc., priority 1998, dated 1999)
Like-named read-outs stand apart in the source and are kept apart here.

Experiments:
[1] = format: physicochemical; settings: 25° C.
Description: The final pH of the solution is shown below. Solution stability of this intravenous formulation was determined at 25° C. with the following results.

[2] = pH of the solution upon dissolution; format: physicochemical; settings: monosodium salt of compound I
Description: The compositions of the present invention are generally formulated using a carbon dioxide source. Preferred sources of carbon dioxide are carbon dioxide (gas, liquid or solid), carbonates and bicarbonates, and more preferably sodium carbonate and sodium bicarbonate, which can be incorporated into the formulation, such that an appropriate pH, e.g., about 6.2-8.5, is obtained upon dissolution. The native pH of the monosodium salt of compound I is approximately 5.4.
One formulation that is of particular interest is comprised of about 3-6 parts by weight, and preferably about 4.5 parts by weight, of compound I, or the pharmaceutically acceptable salt, stabilized form, prodrug or hydrate thereof, and 1 part by weight of sodium bicarbonate. Preferably the carbapenem is in the form of the monosodium salt. The pH which results upon dissolution of this formulation is approximately 6.5. Formulating the drug in this manner can extend the stability of the product in solution.
Another formulation that is of particular interest is comprised of about 4-10 parts by weight, and preferably about 6.7 parts by weight, of the compound of formula I, or the pharmaceutically acceptable salt, stabilized form, prodrug or hydrate thereof, and 1 part by weight sodium carbonate. Preferably the carbapenem is in the form of the monosodium salt. […]

dehydropeptidase (DHP) = test: Susceptibility to attack by dehydropeptidase (DHP); format: in vitro ADME; settings: compared with naturally occurring carbapenems
Description: The compound of formula I is of the broad class known as carbapenems. Naturally occurring carbapenems are susceptible to attack by a renal enzyme known as dehydropeptidase (DHP). This attack or degradation may reduce the efficacy of the carbapenem antibacterial agent. […] However, use of a DHP inhibitor is optional and is contemplated as being included in the present invention. Inhibitors of DHP and heir use with carbapenem antibacterial agents are disclosed in European Patent Applications No. 79102616.4, filed Jul. 24, 1979 (Patent No. 007 614); and No. 82107174.3, filed Aug. 9, 1982 (Publication No. 072 014)!.
The compound of the present invention may, where DHP inhibition is desired or necessary, be combined or used with the appropriate DHP inhibitor as described in the aforesaid patents and published application. The cited European Patent Application defines the procedure for determining DHP susceptibility of the present carbapenems and disclose suitable inhibitors, combination compositions and methods of treatment.

With `CC(O)C1C(=O)N2C(C(=O)O)=C(SC3CNC(C(=O)Nc4cccc(C(=O)O)c4)C3)C(C)C12` (stereo not shown) [Compound I] the “final pH” value ([1]; 12 mg/mL (marked *)) was 7.4, the k ([1]; 12 mg/mL (marked *)) was 0.004994 h⁻¹ and the “t 90%” value ([1]; 12 mg/mL (marked *)) was 21.0 h. For the same compound, the “initial pH” value ([1]; 12 mg/mL (marked *), intravenous formulation) was 7.0, the “final pH” value ([1]; 36 mg/mL) was 7.3 and the k ([1]; 36 mg/mL) was 0.01044 h⁻¹. For the same compound, the “t 90%” value ([1]; 36 mg/mL) was 7.3 h, the “initial pH” value ([1]; 36 mg/mL, intravenous formulation with sodium bicarbonate 8.0 mg/mL, sodium chloride 4.0 mg/mL) was 6.7 and the “native pH” value [2] was “approximately 5.4”. The “susceptibility to attack by dehydropeptidase (DHP)” value (dehydropeptidase (DHP)) was “significantly less subject to such attack”.
